These results are taken from patent US20260109712A1, “RIFAMYCINS FOR NONTUBERCULOUS MYCOBACTERIA” (priority 2022, published 2026).

≈ marks a conversion by molar mass, not a printed value. Read-outs that look alike come from different tables or passages of the source.

Series [1] relates to M. abscessus subsp. abscessus K21. Put plainly: MIC assay, clinical isolate K21. In kind it is cell-based, Mycobacterium abscessus. The settings on record: 90% inhibition of bacterial growth.
The nature of series [2]: Mouse pharmacokinetics studies. Format: in vivo, CD-1 mice. The method in brief: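 Plasma from K2EDTA-collected blood analysed by LC-MS/MS with multiple-reaction monitoring in electrospray positive mode. Parameters derived by non-compartmental analysis.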
For series [3], the system named is M. simiae. Put plainly: MIC, Table 9. Format: cell-based, Mycobacterium simiae.
The test system of series [4] is M. abscessus subspecies massilense. Put plainly: MIC, Table 9. In kind it is cell-based, Mycobacterium abscessus. To be noted: for MIC: M. abscessus subspecies massilense.
Series [5] deals with THP-1. The experiment in a line: Fold-killing in THP-1. Format: cell-based. The settings on record: expressed in log-10 scale.
The subject of series [6] is Mycobacterium abscessus. Put plainly: MIC against Mycobacterium abscessus (strain not given). In kind it is cell-based.
Series [7] relates to CYP3A4. The settings on record: human.
Experimental: The threshold cycle (CT) was measured for each isoform cDNA by real time qRT-PCR. The mRNA level of each isoform was assessed by the relative quantifiation with reference gene (GAPDH) as the normalizer method. The normalized fold induction was calculated by 2^−ΔΔCT method, in which 0.1% DMSO was used as the reference (vehicle control). The induction potential of each test compound was analyzed by comparing its fold induction to a pre-determined cutoff value for each lot of hepatocytes. The hepatocytes lots used in this study were validated using 10 known inducers and 5 known non-inducers for each isozyme. A cutoff value is determined based on the validation study for each hepatocytes lot.
The mark [8] stands for this setting: female, CD-1, mouse, in vivo, 10 mg/kg.
The mark [9] stands for this setting: female, CD-1, mouse, in vivo, iv, 10 mg/kg.

One may read the Vd as a proportionality between amount in the body and measured concentration, not a real space. For `CO[C@H]1/C=C/O[C@@]2(C)Oc3c(C)c(O)c4c(c3C2=O)C2=NC3(CCN(CC(C)C)CC3)NC2=C(NC(=O)/C(C)=C/C=C/[C@H](C)[C@H](O)[C@@H](C)[C@@H](O)[C@@H](C)[C@H](OC(=O)c2cccnc2)[C@@H]1C)C4=O` [5m, 25-O-(3-pyridinecarbonyl)-25-O-desacetyrifabutin], the “Mab K21 MIC” value in series [1] is 0.033 µM. The same compound returned a CL in series [2] (mouse, in vivo, 10 mg/kg) of 3.0 mL/min/kg. For the same compound, the Vd in series [2] (mouse, in vivo, 10 mg/kg) is listed as 1.6 L/kg. Also, the “fAUC/MIC, times higher than rifabutin” value in series [2] (mouse, in vivo, po, 10 mg/kg) amounted to 128. The MIC in series [3] was 0.18 µM (≈ 0.164 µg/mL); in series [4] it was 0.04 µM (≈ 0.0364 µg/mL). In addition, the fold improvement is 56 in series [3] (5m vs rifabutin) and 8 in series [4] (5m vs rifabutin, subspecies massilense).
As usually defined, the clearance is a measure of how efficiently the substance is removed, as volume per time. Higher therefore signals a high capacity for elimination. The term AUC denotes the area under the concentration-time curve, a measure of exposure. The low end stands for less exposure, the high end for more exposure. A word on the half-life: it is the time in which the quantity being followed falls by half. Read a high half-life as slow loss. With `CO[C@H]1/C=C/O[C@@]2(C)Oc3c(C)c(O)c4c(c3C2=O)C2=NC3(CCN(CC(C)C)CC3)NC2=C(NC(=O)/C(C)=C\C=C\[C@H](C)[C@H](O)[C@@H](C)[C@@H](O)[C@@H](C)[C@H](OC(C)=O)[C@@H]1C)C4=O` [rifabutin, reference compound], the ƒAUC/MIC in series [2] (Table 18) and in series [2] (Table 20) was 0.22 throughout. Moreover, the “25-O-desacetyl rifabutin 6 detected in mouse plasma” value in series [2] (female, CD-1, mouse, in vivo) was found to be 0.4%. This compound also showed a F in series [2] (female, CD-1, mouse, in vivo) of 70%. The Vd in series [2] (female, CD-1, mouse, in vivo) worked out at 3.5 L/kg; in series [2] (setting [8]), 3.51 L/kg; in series [2] (setting [9]), 3.51 L/kg. Besides, the clearance in series [2] (female, CD-1, mouse, in vivo) worked out at 10.3 mL/min/kg; in series [2] (setting [8]) it was 10.3 mL/min/kg; in series [2] (setting [9]) it was 10.3 mL/min/kg. Further, the C-25 deacylation i.v. in series [2] (female, CD-1, mouse, in vivo, iv) turned out to be 0.4%. This compound also displayed a C-25 deacylation p.o. in series [2] (female, CD-1, mouse, in vivo, po) of 0.4%. This compound also displayed an AUC in series [2] (female, CD-1, mouse, in vivo, po, 10 mg/kg) of 11500 ng·h/mL. In addition, the half-life in series [2] (female, mouse, in vivo, CD-1 mice, 10 mg/kg) is 4 h. This compound showed a fAUC/MIC in series [2] (p.o. doses of 10 mg/kg) of 0.22. The MIC came out at 10 µM (≈ 8.47 µg/mL) in series [3] (Mycobacterium simiae); 0.3 µM (≈ 0.254 µg/mL) in series [4] (Mycobacteroides abscessus); 1.15 µM (≈ 0.974 µg/mL) in series [6] (Mycobacteroides abscessus, 72 h, Table 22, read-out: MICMab); 1.1 µM (≈ 0.932 µg/mL) in series [6] (Mycobacteroides abscessus, Table 13, read-out: Mab MIC); 1.1 µM (≈ 0.932 µg/mL) in series [6] (Mycobacteroides abscessus, against Mycobacterium abscessus, Table 19, read-out: MIC); 1.1 µM (≈ 0.932 µg/mL) in series [6] (against Mycobacterium abscessus, Table 20, read-out: MIC). Besides, in series [5], the “Fold-killing in THP-1” value amounted to 2.3. Further, in series [7], the “CYP3A4 gene fold-induction at 10 μM” value is listed as 40.0.
